# “And” between values parts separate entries of the source, which are not always exact repeats. Equal values may be shown once.
# Assays:
# RT-SHIV [1] = experiment: tissue or blood; type: cell-based; conditions: for p27 AUC3-15: Rhesus macaque colorectal explants
# RT-SHIV [2] = experiment: tissue or blood; type: cell-based; conditions: for p27 AUC3-15: Rhesus macaque vaginal explants
# [3] = Drug concentrations in human ecto-cervical tissue explants (LC-MS/MS); conditions: for AUC3h-15d / Cmax: Human ecto-cervical explants, 3 h exposure; for Cmax: human, ecto-cervical tissue explants
# [4] = Drug concentrations in human colorectal tissue explants (LC-MS/MS); type: in vitro ADME; conditions: for AUC3h-15d / Cmax: Human colorectal explants, 3 h exposure; for Cmax: human, colorectal tissue explants, read-out: Cmax
# HIV-1BaL [5] = experiment: microbe, parasite or virus in culture; type: cell-based; conditions: Human cervical explants
# SIVmac32H [6] = experiment: microbe, parasite or virus in culture; type: cell-based; conditions: for p27 AUC3-15: Rhesus macaque cervical explants
# HIV-1YU.2 K65R = experiment: microbe, parasite or virus in culture; type: cell-based; conditions: Human colorectal explants
# [7] = Drug concentrations in Rhesus macaque vaginal tissue explants (LC-MS/MS); type: in vitro ADME, Rhesus macaque (Macaca mulatta); conditions: for AUC3h–15d / Cmax: Rh. macaque vaginal explants, 3 h exposure; for Cmax: monkey, vaginal tissue explants, read-out: Cmax
# SIVmac32H K65RM184V [8] = experiment: microbe, parasite or virus in culture; type: cell-based; conditions: for p27 AUC3-15: Rhesus macaque cervical explants
# SIVmac32H K65R = type: cell-based, SIV
# [9] = Drug concentrations in Rhesus macaque ecto-cervical tissue explants (LC-MS/MS); type: in vitro ADME, Rhesus macaque (Macaca mulatta); conditions: for AUC3h–15d / Cmax: Rh. macaque ecto-cervical explants, 3 h exposure; for Cmax: monkey, ecto-cervical tissue explants
# HIV-1/SIV/SHIV isolates = type: cell-based
# [10] = Drug concentrations in Rhesus macaque colorectal tissue explants (LC-MS/MS); type: in vitro ADME, Rhesus macaque (Macaca mulatta); conditions: for AUC3h–15d / Cmax: Rh. macaque colorectal explants, 3 h exposure; for Cmax: monkey, colorectal tissue explants, read-out: Cmax
# SIVmac32H K65RM184V [11] = experiment: microbe, parasite or virus in culture; type: cell-based; conditions: for p27 AUC3-15: Rhesus macaque colorectal explants
# HIV-1YU.2 = experiment: microbe, parasite or virus in culture; type: cell-based; conditions: Human colorectal explants
# HIV-1YU.2 K65RM184V = experiment: microbe, parasite or virus in culture; type: cell-based; conditions: Human colorectal explants;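 on p24 AUC3-15: high arm above the IC50 and low arm below the IC50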
# HIV-1BaL [12] = experiment: microbe, parasite or virus in culture; type: cell-based; conditions: Human colorectal explants
# SIVmac32H K65RM184V [13] = experiment: microbe, parasite or virus in culture; type: cell-based; conditions: for p27 AUC3-15: Rhesus macaque vaginal explants
# SIVmac32H [14] = experiment: microbe, parasite or virus in culture; type: cell-based; conditions: for p27 AUC3-15: Rhesus macaque vaginal explants
# SIVmac32H M184V = type: cell-based, SIV
# SIVmac32H [15] = experiment: microbe, parasite or virus in culture; type: cell-based; conditions: for p27 AUC3-15: Rhesus macaque colorectal explants
# HIV-1YU.2 M184V = experiment: microbe, parasite or virus in culture; type: cell-based; conditions: Human colorectal explants
# [16] = high concentration: TFV 70 µM, MVC […], or TFV 70 µM + MVC […]
# [17] = low concentration: TFV 7 µM, MVC […], or TFV 7 µM + MVC […]
# [18] = Comb. gel, High [ ]: TFV 70 µM + MVC […]
# [19] = Comb. gel, Low [ ]: TFV 7 µM + MVC […]
# [20] = Single gel, High [ ]: TFV 70 µM or MVC […]
# [21] = Single gel, Low [ ]: TFV 7 µM or MVC […]
# [22] = Human immunodeficiency virus 1, 360 h, day 15
# [23] = Simian immunodeficiency virus, in Macaca mulatta, 360 h, NHP cervical explants, day 15
# [24] = Simian immunodeficiency virus, in Macaca mulatta, 360 h, NHP colorectal explants, day 15
# [25] = Simian immunodeficiency virus, in Macaca mulatta, 360 h, NHP vaginal explants, day 15
compound,measurement,setting,value
"C[C@H](Cn1cnc2c(N)ncnc21)OCP(=O)(O)O [TFV, Tenofovir]",IC50,"RT-SHIV [1]; Macaca mulatta, 360 h, NHP colorectal explants, day 15",30 ± 13.2 µM
same,p27 AUC3-15,RT-SHIV [1]; [16],1.45 ± 0.24 µgxd/ml
same,p27 AUC3-15,RT-SHIV [1]; [17],4.27 ± 2.75 µgxd/ml
same,IC50,"RT-SHIV [2]; Macaca mulatta, 360 h, NHP vaginal explants, day 15",52.1 ± 27.3 µM
same,p27 AUC3-15,RT-SHIV [2]; [16],1.28 ± 0.27 µgxd/ml
same,p27 AUC3-15,RT-SHIV [2]; [17],1.53 ± 0.29 µgxd/ml
same,AUC3h-15d,[3]; [18],30.61 ng·days/mg
same,AUC3h-15d,[3]; [19],4.409 ng·days/mg
same,AUC3h-15d,[3]; [20],25.40 ng·days/mg
same,AUC3h-15d,[3]; [21],4.05 ng·days/mg
same,average exposure (AUC3h-15d) fold change,[3]; human ecto-cervical compared to colorectal explants,3.7 fold
same,"AUC3h-15d fold increase, high versus low concentration gels",[3]; human ecto-cervical explants,6.6 fold
same,Cmax fold increase,[3]; human ecto-cervical explants versus macaque tissue,5.6 fold
same,Cmax,[3]; [18],16600 ng/g
same,Cmax,[3]; [19],2380 ng/g
same,Cmax,[3]; [20],13600 ng/g
same,Cmax,[3]; [21],2030 ng/g
same,AUC3h-15d,[4]; [18],6.37 ng·days/mg
same,AUC3h-15d,[4]; [19],1.99 ng·days/mg
same,AUC3h-15d,[4]; [20],6.62 ng·days/mg
same,AUC3h-15d,[4]; [21],2.47 ng·days/mg
same,"AUC3h-15d fold increase, high versus low concentration gels",[4]; human colorectal tissue,2.9 fold
same,Cmax,[4]; [18],3670 ng/g
same,Cmax,[4]; [19],1170 ng/g
same,Cmax,[4]; [20],2920 ng/g
same,Cmax,[4]; [21],1320 ng/g
same,p24 AUC3-15,HIV-1BaL [5]; [16],1.13 ± 0.10 µgxd/ml
same,p24 AUC3-15,HIV-1BaL [5]; [17],2.55 ± 1.47 µgxd/ml
same,IC50,HIV-1BaL [5]; [22],41.4 ± 0.57 µM
same,p27 AUC3-15,SIVmac32H [6]; [16],1.25 ± 0.36 µgxd/ml
same,p27 AUC3-15,SIVmac32H [6]; [17],1.46 ± 0.52 µgxd/ml
same,IC50,SIVmac32H [6]; [23],52.6 ± 41.5 µM
same,p24 AUC3-15,HIV-1YU.2 K65R; [16],0.41 ± 0.03 µgxd/ml
same,p24 AUC3-15,HIV-1YU.2 K65R; [17],0.71 ± 0.06 µgxd/ml
same,IC50,HIV-1YU.2 K65R; [22],62.4 ± 15.8 µM
same,AUC3h–15d,[7]; [18],10.16 ng·days/mg
same,AUC3h–15d,[7]; [19],5.75 ng·days/mg
same,AUC3h–15d,[7]; [20],10.25 ng·days/mg
same,AUC3h–15d,[7]; [21],4.05 ng·days/mg
same,"AUC3h-15d fold increase, high versus low concentration gels",[7]; macaque vaginal explants,2.1 fold
same,Cmax,[7]; [18],1350 ng/g
same,Cmax,[7]; [19],770 ng/g
same,Cmax,[7]; [20],1370 ng/g
same,Cmax,[7]; [21],540 ng/g
same,p27 AUC3-15,SIVmac32H K65RM184V [8]; [16],1.40 ± 0.30 µgxd/ml
same,p27 AUC3-15,SIVmac32H K65RM184V [8]; [17],1.65 ± 0.30 µgxd/ml
same,IC50,SIVmac32H K65RM184V [8]; [23],81.3 ± 50.8 µM
same,IC50,SIVmac32H K65R,46.6 ± 12.6 µM
same,p27 AUC3-15,SIVmac32H K65R,1.43 ± 0.31 µgxd/ml and 1.95 ± 0.54 µgxd/ml
same,AUC3h-15d fold increase on combining the two ARVs,"[9]; NHP ecto-cervical explants, combination versus single drug",2.2 fold
same,AUC3h–15d,[9]; [18],18.55 ng·days/mg
same,AUC3h–15d,[9]; [19],14.11 ng·days/mg
same,AUC3h–15d,[9]; [20],9.55 ng·days/mg
same,AUC3h–15d,[9]; [21],4.99 ng·days/mg
same,Cmax,[9]; [18],2460 ng/g
same,Cmax,[9]; [19],1860 ng/g
same,Cmax,[9]; [20],1250 ng/g
same,Cmax,[9]; [21],660 ng/g
same,potency against the mutant isolates,HIV-1/SIV/SHIV isolates,reduced
same,median (IQR) fold decreased IC50 values for matched isolates,"HIV-1/SIV/SHIV isolates; colorectal tissue compared to female genital tract tissue, NHP and human explants",1.8 (1.7–2.1) fold
same,exposure (AUC3h-15d) fold change,[10]; NHP colorectal explants versus ecto-cervical,2.5 fold
same,exposure (AUC3h-15d) fold change,[10]; NHP colorectal explants versus vaginal tissues,4.4 fold
same,AUC3h–15d,[10]; [18],66.86 ng·days/mg
same,AUC3h–15d,[10]; [19],13.99 ng·days/mg
same,AUC3h–15d,[10]; [20],30.64 ng·days/mg
same,AUC3h–15d,[10]; [21],4.68 ng·days/mg
same,Cmax,[10]; [18],44200 ng/g
same,Cmax,[10]; [19],9190 ng/g
same,Cmax,[10]; [20],20200 ng/g
same,Cmax,[10]; [21],2980 ng/g
same,p27 AUC3-15,SIVmac32H K65RM184V [11]; [16],1.38 ± 0.27 µgxd/ml
same,p27 AUC3-15,SIVmac32H K65RM184V [11]; [17],1.70 ± 0.32 µgxd/ml
same,IC50,SIVmac32H K65RM184V [11]; [24],47.9 ± 24.9 µM
same,p24 AUC3-15,HIV-1YU.2; [16],1.83 ± 0.18 µgxd/ml
same,p24 AUC3-15,HIV-1YU.2; [17],10.73 ± 5.56 µgxd/ml
same,IC50,HIV-1YU.2; [22],28.9 ± 11.8 µM
same,p24 AUC3-15,HIV-1YU.2 K65RM184V; [16],1.01 ± 0.11 µgxd/ml
same,p24 AUC3-15,HIV-1YU.2 K65RM184V; [17],1.88 ± 0.07 µgxd/ml
same,IC50,HIV-1YU.2 K65RM184V; [22],36.4 ± 3.83 µM
same,p24 AUC3-15,HIV-1BaL [12]; [16],0.41 ± 0.17 µgxd/ml
same,p24 AUC3-15,HIV-1BaL [12]; [17],2.57 ± 1.81 µgxd/ml
same,IC50,HIV-1BaL [12]; [22],22.2 ± 1.39 µM
same,p27 AUC3-15,SIVmac32H K65RM184V [13]; [16],1.37 ± 0.30 µgxd/ml
same,p27 AUC3-15,SIVmac32H K65RM184V [13]; [17],1.61 ± 0.29 µgxd/ml
same,IC50,SIVmac32H K65RM184V [13]; [25],77.1 ± 31.5 µM
same,p27 AUC3-15,SIVmac32H [14]; [16],1.27 ± 0.24 µgxd/ml
same,p27 AUC3-15,SIVmac32H [14]; [17],1.44 ± 0.28 µgxd/ml
same,IC50,SIVmac32H [14]; [25],56.1 ± 62.9 µM
same,IC50,SIVmac32H M184V,40.2 ± 30.1 µM
same,p27 AUC3-15,SIVmac32H [15]; [16],1.23 ± 0.14 µgxd/ml
same,p27 AUC3-15,SIVmac32H [15]; [17],4.84 ± 1.77 µgxd/ml
same,IC50,SIVmac32H [15]; [24],25.4 ± 5.35 µM
same,p24 AUC3-15,HIV-1YU.2 M184V; [16],0.52 ± 0.02 µgxd/ml
same,p24 AUC3-15,HIV-1YU.2 M184V; [17],0.82 ± 0.05 µgxd/ml
same,IC50,HIV-1YU.2 M184V; [22],37.9 ± 12.5 µM

# Reference: article PMC9157191, “The ex vivo pharmacology of HIV-1 antiretrovirals differs between macaques and humans” (iScience, 2022)
